Assays:
rhGBA [1] = biological target: T1, rhGBA (Homo sapiens, UniProt P04062); assay: Titration of ABP 6 and ABP 9 with constant rhGBA (gel-based labelling); format: biochemical; conditions: constant rhGBA 200 nM, ABP 150–0.001 nM, 37 °C, 30 mins
T1 construct: made in house; host or cells: insect-baculovirus expression vector system (BEVS)
T1 sequence (P04062 40-536): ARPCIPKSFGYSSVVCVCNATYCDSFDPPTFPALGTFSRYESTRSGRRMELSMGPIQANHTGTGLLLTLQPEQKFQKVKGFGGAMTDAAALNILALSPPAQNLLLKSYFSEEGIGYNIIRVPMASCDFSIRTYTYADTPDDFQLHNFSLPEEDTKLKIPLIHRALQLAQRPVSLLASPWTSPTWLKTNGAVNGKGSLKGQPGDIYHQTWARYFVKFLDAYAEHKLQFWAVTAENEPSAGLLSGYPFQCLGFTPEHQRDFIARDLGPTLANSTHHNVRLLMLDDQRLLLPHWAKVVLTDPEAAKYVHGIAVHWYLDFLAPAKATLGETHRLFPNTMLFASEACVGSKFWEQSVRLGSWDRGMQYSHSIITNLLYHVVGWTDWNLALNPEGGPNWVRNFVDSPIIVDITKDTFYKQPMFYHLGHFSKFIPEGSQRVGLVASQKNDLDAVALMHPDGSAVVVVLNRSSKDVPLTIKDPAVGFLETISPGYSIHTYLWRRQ
Method: Maximum‐likelihood/σA weighted (2Fo–Fc) electron density map contoured to 1.0 σ (a=1.31 e^−/Å^3). […] Fluorescently labelled rhGBA visualized by Cy5 fluorescent readout. D=denatured protein sample.
The reactions were incubated at 37 °C for 30 mins and denatured with Laemmli (x3) sample buffer at 95 °C for 5 minutes. The samples were resolved by electrophoresis in 10 % SDS‐PAGE gels, running at 200 V for ∼50 minutes. Wet slab gels were scanned on fluorescence using an Amersham Typhoon 5 Imager (GE Healthcare) with λEX 635 nm; λEM >665 nm.

rhGBA [2] = biological target: T1, rhGBA; assay: pH dependent activity-based labelling of rhGBA by ABP 6 and ABP 9; format: biochemical; conditions: rhGBA 200 nM, ABP 150 nM, pH 4.5, 5.2 or 7.4, 37 °C, 30 mins
Method: Cy5 tetrazine 20 (2.83 mg, 4.3 µmol) was added to a solution of norbornene 19 (0.94 mg, 2.38 µmol) in MeOH (4 mL). After stirring overnight at rt, the reaction mixture was concentrated in vacuo and purified by HPLC under neutral conditions (A: 50 mM NH4HCO3 in H2O; B: MeCN; 49% → 52%, A in B) yielding ABP 7 (2.12 mg, 2.07 µmol, 87%) as a mixture of regioisomers.
Biochemical Methods: General Experimental Details
Recombinant human GBA (rhGBA, imiglucerase, Cerezyme®) and GAA (rhGAA, alglucosidase alfa, Myozyme) were obtained from Sanofi Genzyme (Cambridge, MA, USA). HEK293T (CRL-3216) cell lines were purchased from ATCC (Manassas, VA, USA). […] All the tissue lysates were prepared in potassium phosphate lysis buffer (25 mM in pH 6.5, supplemented with 0.1% (v/v) Triton X-100 and protease inhibitor 1x cocktail (Roche)) via homogenization with silent crusher S equipped with Typ 7 F/S head (30 rpm x 1000, 3 × 7 sec) on ice and lysate concentration was determined with Bicinchoninic acid (BCA) Protein Assay Kit (PierceTM)[7]. […]
ABP 9 were diluted with DMSO into various concentrations (200x of the final concentration), and 5 µL of ABP at different concentrations were added into 1 mL fresh medium containing cells and incubated at 37°C for 24 h. […] The protein concentrations were determined using BCA kit. […]

CCCCCCCCN1[C@@H]2[C@H](Cn3cc(CNC(=O)CCCCC[N+]4=C(/C=C/C=C/C=C5/N(C)c6ccccc6C5(C)C)C(C)(C)c5ccccc54)nn3)[C@@H](O)[C@H](O)[C@@H](O)[C@@H]21 (some centres unmarked) [ABP 6] was tested, and the “gel-detection limit (ABP concentration)” value (rhGBA [1]) was 1 nM and the “pH dependence of rhGBA labelling” value (rhGBA [2]) was “greater labelling at acidin pH (4.5 and 5.2)”.

— PMC9298352, “Design, Synthesis and Structural Analysis of Glucocerebrosidase Imaging Agents” (Chemistry (Weinheim an Der Bergstrasse, Germany), 2021)
